The record followed here is patent publication US12331224B2, “Two-part epoxy compositions for adherent coatings of storage articles” (SWIMC LLC, priority 2019, dated 2025).

The target in series [1] is T1, estrogen receptor (Homo sapiens, UniProt P03372).
T1 sequence (P03372 1-595): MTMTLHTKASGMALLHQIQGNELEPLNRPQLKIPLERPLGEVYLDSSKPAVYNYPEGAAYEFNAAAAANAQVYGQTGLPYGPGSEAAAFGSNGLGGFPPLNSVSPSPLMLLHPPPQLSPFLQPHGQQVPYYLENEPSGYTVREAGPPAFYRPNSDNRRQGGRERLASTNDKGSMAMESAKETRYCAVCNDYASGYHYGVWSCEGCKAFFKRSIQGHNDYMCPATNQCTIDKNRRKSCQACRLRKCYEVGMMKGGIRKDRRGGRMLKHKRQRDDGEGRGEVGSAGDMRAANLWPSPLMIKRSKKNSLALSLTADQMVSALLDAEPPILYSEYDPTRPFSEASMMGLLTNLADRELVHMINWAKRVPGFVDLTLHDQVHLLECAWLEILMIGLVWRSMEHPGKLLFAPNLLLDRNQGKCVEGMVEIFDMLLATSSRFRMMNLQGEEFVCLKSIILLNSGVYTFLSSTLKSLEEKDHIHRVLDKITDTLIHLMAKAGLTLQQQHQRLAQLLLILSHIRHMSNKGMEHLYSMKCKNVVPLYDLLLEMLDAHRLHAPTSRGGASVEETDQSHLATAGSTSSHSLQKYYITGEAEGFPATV
Briefly: suitable in vitro assay of estrogenic agonist activity correlated to the MCF-7 assay. Particulars: suitable in vitro assay correlated to MCF-7 assay. From the text:
While not intending to be bound by any theory, it is believed that the positioning of one or more R^1 groups at an ortho position relative to the oxygen atom depicted in Formulas (I) and (IA) may be particularly beneficial in reducing or eliminating estrogenic agonist activity.

A short description of series [2]: Gel-time comparison of two-part epoxy compositions with curing agents. In kind it is physicochemical. Particulars: for Gel time: 1:1 stoichiometric mix, 100 g; for Difference in gel time: TMBPFDGE minus BADGE; for Gel-Time % increase: from BADGE to TMBPFDGE
How it is done: Two-part epoxy compositions of bisphenol A diglycidyl ether (BADGE) (e.g., molecular weight of approximately 340 g/mol) and tetramethyl bisphenol F diglycidyl ether (TMBPFDGE) were prepared and mixed with various amine-based curing agents to compare the respective gel times of the compositions. The BADGE and TMBPFDGE monomer epoxides (e.g., molecular weight of approximately 340.4 g/mol and 368.6 g/mol respectively) were reduced to approximately 90% weight solids with xylene solvent. Gel times were measured using 100 g mass samples with a Paul N. Gardner Co, Inc. gel time recorder model S-5154. The gel-time values reported are in minutes, along with the difference between BADGE and TMBPFDGE compositions using the same curing agent, and the percent increase in gel time from BADGE to TMBPFDGE.

Series [3] deals with MCF-7, clone WS8, cells. In words: MCF-7 cell proliferation assay of estrogenic agonist activity. In kind it is cell-based, human. Particulars: logarithmic (base 10) Relative Proliferative Effect in MCF-7 assay; expected or measured values. From the text:
As used herein, the terms “estrogenic agonist activity” or “estrogenic activity” refer to the ability of a compound to mimic hormone-like activity through interaction with an endogenous estrogen receptor, typically an endogenous human estrogen receptor. […] The MCF-7 assay uses MCF-7, clone WS8, cells to measure whether and to what extent a substance induces cell proliferation via estrogen receptor (ER)-mediated pathways. The method is described in “Test Method Nomination: MCF-7 Cell Proliferation Assay of Estrogenic agonist activity” submitted for validation by CertiChem, Inc. to the National Toxicology Program Interagency Center for the Evaluation of Alternative Toxicological Methods (NICEA™) on Jan. 19, 2006 (available online at http://iccvam.niehs.nih.gov/methods/endocrine/endodocs/SubmDoc.pdf). As a brief summary of the assay, MCF-7, clone WS8, cells are maintained at 37° C. in RMPI (or Roswell Park Memorial Institute medium) containing Phenol Red (e.g., GIBCO Catalog Number 11875119) and supplemented with the indicated additives for routine culture. An aliquot of cells maintained at 37° C. are grown for 2 days in phenol-free media containing 5% charcoal stripped fetal bovine serum in a 25 cm^2 tissue culture flask. Using a robotic dispenser such as an epMotion 5070 unit, MCF-7 cells are then seeded at 400 cells per well in 0.2 ml of hormone-free culture medium in Corning 96-well plates. The cells are adapted for 3 days in the hormone-free culture medium prior to adding the chemical to be assayed for estrogenic agonist activity. The media containing the test chemical is replaced daily for 6 days. At the end of the 7-day exposure to the test chemical, the media is removed, the wells are washed once with 0.2 ml of HBSS (Hanks' Balanced Salt Solution), and then assayed to quantify amounts of DNA per well using a micro-plate modification of the Burton diphenylamine (DPA) assay, which is used to calculate the level of cell proliferation.
RPE is the ratio between the EC50 of the test chemical and the EC50 of the control substance 17-beta estradiol times 100, where EC50 is “effective concentration 50%” or half-maximum stimulation concentration for cell proliferation measured as total DNA in the MCF-7 assay.
Tables 1 and 2 provided below include some compounds and their expected or measured logarithmic RPE values in the MCF-7 assay.

Where [4] appears, read: curing agent ANACAMIDE 375A (polyamide).
Setting [5] is: curing agent ANACAMINE 503 (amidoamine).
The mark [6] stands for this setting: curing agent ANACAMINE 2393 (cycloaliphatic amine).
Where [7] appears, read: curing agent CARDOLITE 3040 (phenalkamide).
The mark [8] stands for this setting: curing agent CARDOLITE NC541 (phenalkamine).
The mark [9] stands for this setting: curing agent GABEPRO GPM-830CB (mercaptan).
Where [10] appears, read: curing agent TETA, epoxy 90% solids in xylene.

Take `CC(C)(C)c1cc(Cc2cc(C(C)(C)C)c(O)c(C(C)(C)C)c2)cc(C(C)(C)C)c1O` [4,4′-methylenebis(2,6-di-t-butylphenol)]: the estrogenic agonist activity entry in series [1] is reported as “do not exhibit appreciable estrogenic agonist activity”.
Take `CC(C)(c1ccc(OCC2CO2)cc1)c1ccc(OCC2CO2)cc1` (centres unmarked) [BADGE, bisphenol A diglycidyl ether, reference compound]: the Gel time amounted to 312 min in series [2] (setting [4]); 211 min in series [2] (setting [5]); 55 min in series [2] (setting [6]); 198 min in series [2] (setting [7]); 86 min in series [2] (setting [8]); 16 min in series [2] (setting [9]). Further, the Gel time was found to be 275 min in series [2] (curing agent PACM) and 74 min in series [2] (setting [10]).
In the case of `Cc1cc(Cc2cc(C)c(O)c(C)c2)cc(C)c1O` [4,4′-methylenebis(2,6-dimethylphenol)], the estrogenic agonist activity entry in series [1] is given as “do not exhibit appreciable estrogenic agonist activity”.
On to `CCCC(c1cc(C(C)(C)C)c(O)cc1C)c1cc(C(C)(C)C)c(O)cc1C` [4,4′-butylidenebis(2-t-butyl-5-methylphenol)], for which the estrogenic agonist activity entry in series [1] is on record as “do not exhibit appreciable estrogenic agonist activity”.
Turning to `Cc1cc(Cc2cc(C)c(OCC3CO3)c(C)c2)cc(C)c1OCC1CO1` (centres unmarked) [TMBPFDGE, tetramethyl bisphenol F diglycidyl ether], the “Difference in gel time” value in series [2] (setting [4]) is 454 min; in series [2] (setting [5]), 469 min; in series [2] (setting [6]) it was 343 min; in series [2] (setting [7]) it was 370 min; in series [2] (setting [8]) it was 206 min; in series [2] (setting [9]) it was 82 min. Moreover, the “Difference in gel time” value in series [2] (curing agent PACM) came out at 510 min; in series [2] (curing agent TETA), 333 min. In addition, the Gel time in series [2] (setting [4]) is 766 min; in series [2] (setting [5]) it was 680 min; in series [2] (setting [6]) it was 398 min; in series [2] (setting [7]) it was 568 min; in series [2] (setting [8]), 292 min; in series [2] (setting [9]), 98 min. Besides, the figures for the Gel time in series [2] (curing agent PACM) and in series [2] (setting [10]) were 785 min and 407 min, respectively. The Gel-Time % increase in series [2] (setting [4]) came to 146%; in series [2] (setting [5]), 222%; in series [2] (setting [6]), 624%; in series [2] (setting [7]) it was 187%; in series [2] (setting [8]) it was 240%; in series [2] (setting [9]) it was 513%. Further, the Gel-Time % increase in series [2] (curing agent PACM) worked out at 185%; in series [2] (curing agent TETA) it was 450%.
`CC(C)(C)c1cc(O)c(C(C)(C)C)cc1O` [2,5-di-t-butylhydroquinone]: the estrogenic agonist activity entry in series [1] is given as “do not exhibit appreciable estrogenic agonist activity”.
As to `Cc1cc(Cc2cc(C)cc(C(C)(C)C)c2O)c(O)c(C(C)(C)C)c1` [2,2′-methylenebis(4-methyl-6-t-butylphenol)], the estrogenic agonist activity result in series [1] is listed as “do not exhibit appreciable estrogenic agonist activity”.
As for `Cc1cc(Cc2cc(C)cc(C3(C)CCCCC3)c2O)c(O)c(C2(C)CCCCC2)c1` [2,2′-Methylenebis(6-(1-methylcyclohexyl)-4-methylphenol], the “Log RPE” value in series [3] was “less than −4”.
For `C[C@]12CC[C@@H]3c4ccc(O)cc4CC[C@H]3[C@@H]1CC[C@@H]2O` [17β-estradiol], the “Log RPE” value in series [3] is 2.00.
In the case of `Oc1ccc(Cc2ccc(O)cc2)cc1` [Bisphenol F], the “Log RPE” value in series [3] is −2.
Turning to `O=S(=O)(c1ccc(O)cc1)c1ccc(O)cc1` [Bisphenol S], the “Log RPE” value in series [3] is given as −2.
